The results in this text go back to the supplement of paper PMC10307832.

Holding throughout (assay): relative viability (nuclei count vs DMSO), 5 days (fraction); higher = more cells survive
Compound in test [1]: CC(C)N(CCCNC(=O)Nc1ccc(C(C)(C)C)cc1)C[C@H]1O[C@@H](n2ccc3c(N)ncnc32)[C@H](O)[C@@H]1O + CCNC(=O)c1noc(-c2cc(C(C)C)c(O)cc2O)c1-c1ccc(CN2CCOCC2)cc1 [Luminespib] (partner 0.01 µM)
The method, boiled down: (§1)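 Relative viability divides the nuclei count in treated wells by that in vehicle wells. Lung cancer cell lines were seeded in 1536-well plates, dosed by pin tool the next day, and fixed and stained after 5 days in one step with final 0.05% Triton X-100, 1% formaldehyde and 1 ug/ml Hoechst. Dosing was a single drug or a fixed anchor-drug dose plus five library-drug doses (not always all listed) in √10 steps, and values are medians of duplicate plates imaged at 4×.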

Compound in test [2]: CC(C)N(CCCNC(=O)Nc1ccc(C(C)(C)C)cc1)C[C@H]1O[C@@H](n2ccc3c(N)ncnc32)[C@H](O)[C@@H]1O + CS(=O)(=O)CCNCc1ccc(-c2ccc3ncnc(Nc4ccc(OCc5cccc(F)c5)c(Cl)c4)c3c2)o1 [Lapatinib] (partner 2 µM)
The method, boiled down:
as §1

Compound in test [3]: CC(C)N(CCCNC(=O)Nc1ccc(C(C)(C)C)cc1)C[C@H]1O[C@@H](n2ccc3c(N)ncnc32)[C@H](O)[C@@H]1O + NC(=O)Nc1cc(-c2cccc(F)c2)sc1C(=O)N[C@H]1CCCNC1 [AZD7762] (partner 0.2 µM)
The method, boiled down:
as §1

Compound in the test “Shikonin + OSI-027”: CC(C)=CC[C@@H](O)C1=CC(=O)c2c(O)ccc(O)c2C1=O [Shikonin] + COc1cccc2cc(-c3nc([C@H]4CC[C@H](C(=O)O)CC4)n4ncnc(N)c34)[nH]c12 [OSI-027] (partner 0.5 µM)
The method, boiled down:
as §1

On to LXF-289, for which the relative viability came out at 0.731 in test [1] (first compound 0.08 µM); 0.679 in test [1] (first compound 0.253 µM); 0.65 in test [1] (first compound 0.8 µM); 0.669 in test [1] (first compound 2.53 µM); 0.71 in test [1] (first compound 8 µM); 0.867 in test [2] (first compound 0.08 µM). Further, the relative viability amounted to 0.956 in test [2] (first compound 0.253 µM); 0.863 in test [2] (first compound 0.8 µM); 0.943 in test [2] (first compound 2.53 µM); 0.821 in test [2] (first compound 8 µM); 1.1 in test [3] (first compound 0.08 µM); 1.1 in test [3] (first compound 0.253 µM). In addition, the relative viability worked out at 1.09 in test [3] (first compound 0.8 µM); 1.12 in test [3] (first compound 2.53 µM); 1 in test [3] (first compound 8 µM); 0.817 in the test with Shikonin + OSI-027 (first compound 0.01 µM); 0.84 in the test with Shikonin + OSI-027 (first compound 0.1 µM); 0.825 with Shikonin + OSI-027 (first compound 0.3162 µM). Besides, the relative viability in the test with Shikonin + OSI-027 (first compound 1 µM) stood at 0.892.

As to NCI-H23, the relative viability in test [1] (first compound 0.08 µM) was found to be 0.224; in test [1] (first compound 0.253 µM), 0.23; in test [1] (first compound 0.8 µM) it was 0.199; in test [1] (first compound 2.53 µM) it was 0.233; in test [1] (first compound 8 µM) it was 0.21; in test [2] (first compound 0.08 µM) it was 1. Also, the relative viability in test [2] (first compound 0.8 µM) worked out at 1.22; in test [2] (first compound 2.53 µM), 1.21; in test [2] (first compound 8 µM), 0.955; in test [3] (first compound 0.08 µM) it was 0.252; in test [3] (first compound 0.8 µM), 0.226; in test [3] (first compound 2.53 µM) it was 0.201. Further, the relative viability in test [3] (first compound 8 µM) amounted to 0.305; with Shikonin + OSI-027 (first compound 0.01 µM) it was 0.623; with Shikonin + OSI-027 (first compound 0.1 µM), 0.661; with Shikonin + OSI-027 (first compound 0.3162 µM) it was 0.62; in the test with Shikonin + OSI-027 (first compound 1 µM), 0.521.

For NCI-H322M, the relative viability is 0.92 in test [1] (first compound 0.08 µM); 0.759 in test [1] (first compound 0.253 µM); 0.889 in test [1] (first compound 0.8 µM); 0.76 in test [1] (first compound 2.53 µM); 0.913 in test [1] (first compound 8 µM); 0.536 in test [2] (first compound 0.08 µM). The relative viability in test [2] (first compound 0.253 µM) was 0.591; in test [2] (first compound 0.8 µM) it was 0.607; in test [2] (first compound 2.53 µM), 0.564; in test [2] (first compound 8 µM), 0.607; in test [3] (first compound 0.08 µM) it was 0.529; in test [3] (first compound 0.253 µM), 0.541. The relative viability in test [3] (first compound 0.8 µM) stood at 0.751; in test [3] (first compound 2.53 µM), 0.51; in test [3] (first compound 8 µM), 0.803; with Shikonin + OSI-027 (first compound 0.01 µM) it was 0.548; in the test with Shikonin + OSI-027 (first compound 0.1 µM), 0.562; with Shikonin + OSI-027 (first compound 0.3162 µM), 0.53. Further, the relative viability with Shikonin + OSI-027 (first compound 1 µM) is 0.509.

Turning to NCI-H358, the relative viability in test [1] (first compound 0.08 µM) stood at 0.441; in test [1] (first compound 0.253 µM), 0.235; in test [1] (first compound 0.8 µM), 0.384; in test [1] (first compound 2.53 µM), 0.0174; in test [1] (first compound 8 µM), 0.307; in test [2] (first compound 0.08 µM), 0.433. For the same cell line, the relative viability worked out at 0.443 in test [2] (first compound 0.253 µM); 0.427 in test [2] (first compound 0.8 µM); 0.357 in test [2] (first compound 2.53 µM); 0.393 in test [2] (first compound 8 µM); 0.454 in test [3] (first compound 0.08 µM); 0.538 in test [3] (first compound 0.253 µM). Also, the relative viability in test [3] (first compound 0.8 µM) is 0.569; in test [3] (first compound 2.53 µM), 0.565; in test [3] (first compound 8 µM) it was 0.491; with Shikonin + OSI-027 (first compound 0.01 µM) it was 0.681; with Shikonin + OSI-027 (first compound 0.1 µM), 0.699; with Shikonin + OSI-027 (first compound 0.3162 µM) it was 0.712. Further, the relative viability in the test with Shikonin + OSI-027 (first compound 1 µM) turned out to be 0.662.

Regarding NCI-H460, the relative viability in test [1] (first compound 0.08 µM) is 0.0341; in test [1] (first compound 0.253 µM), 0.0252; in test [1] (first compound 0.8 µM), 0.0359; in test [1] (first compound 2.53 µM) it was 0.0291; in test [1] (first compound 8 µM), 0.0376; in test [2] (first compound 0.08 µM), 0.835. Moreover, the relative viability in test [2] (first compound 0.253 µM) stood at 0.983; in test [2] (first compound 0.8 µM) it was 0.829; in test [2] (first compound 2.53 µM), 0.971; in test [2] (first compound 8 µM), 0.855; in test [3] (first compound 0.08 µM) it was 0.725; in test [3] (first compound 0.253 µM), 0.58. Further, the relative viability worked out at 0.605 in test [3] (first compound 0.8 µM); 0.499 in test [3] (first compound 2.53 µM); 0.585 in test [3] (first compound 8 µM); 0.834 with Shikonin + OSI-027 (first compound 0.01 µM); 0.755 with Shikonin + OSI-027 (first compound 0.1 µM); 1.11 in the test with Shikonin + OSI-027 (first compound 0.3162 µM). The relative viability with Shikonin + OSI-027 (first compound 1 µM) worked out at 0.879.

In the case of NCI-H596, the relative viability stood at 1.06 in test [1] (first compound 0.08 µM); 0.923 in test [1] (first compound 0.8 µM); 0.955 in test [1] (first compound 2.53 µM); 1.12 in test [1] (first compound 8 µM); 1.17 in test [2] (first compound 0.08 µM); 0.946 in test [2] (first compound 0.253 µM). In addition, the relative viability came to 0.971 in test [2] (first compound 0.8 µM); 1.08 in test [2] (first compound 2.53 µM); 1.06 in test [2] (first compound 8 µM); 1.09 in test [3] (first compound 0.08 µM); 0.943 in test [3] (first compound 0.253 µM); 0.926 in test [3] (first compound 0.8 µM). Also, the relative viability in test [3] (first compound 2.53 µM) turned out to be 1.23; in test [3] (first compound 8 µM) it was 1.09; with Shikonin + OSI-027 (first compound 0.01 µM), 0.584; with Shikonin + OSI-027 (first compound 0.1 µM), 0.968; in the test with Shikonin + OSI-027 (first compound 0.3162 µM) it was 0.754; with Shikonin + OSI-027 (first compound 1 µM), 0.679.

NCI-H647: the relative viability was 0.267 in test [1] (first compound 0.08 µM); 0.461 in test [1] (first compound 0.253 µM); 0.241 in test [1] (first compound 2.53 µM); 0.245 in test [1] (first compound 8 µM); 0.961 in test [2] (first compound 0.08 µM); 0.856 in test [2] (first compound 0.8 µM). Moreover, the relative viability in test [2] (first compound 2.53 µM) was 0.983; in test [2] (first compound 8 µM), 0.933; in test [3] (first compound 0.08 µM), 0.457; in test [3] (first compound 0.253 µM), 0.523; in test [3] (first compound 0.8 µM), 0.509; in test [3] (first compound 2.53 µM) it was 0.366. Also, the relative viability in test [3] (first compound 8 µM) came to 0.414; in the test with Shikonin + OSI-027 (first compound 0.01 µM), 0.712; with Shikonin + OSI-027 (first compound 0.1 µM), 0.631; with Shikonin + OSI-027 (first compound 0.3162 µM), 0.666; with Shikonin + OSI-027 (first compound 1 µM), 0.602.

For NCI-H650, the relative viability worked out at 0.665 in test [1] (first compound 0.08 µM); 0.803 in test [1] (first compound 0.253 µM); 0.666 in test [1] (first compound 0.8 µM); 0.757 in test [1] (first compound 2.53 µM); 0.774 in test [1] (first compound 8 µM); 0.921 in test [2] (first compound 0.08 µM). Also, the relative viability in test [2] (first compound 0.253 µM) was 0.889; in test [2] (first compound 0.8 µM), 0.775; in test [2] (first compound 2.53 µM) it was 0.791; in test [2] (first compound 8 µM) it was 0.871; in test [3] (first compound 0.08 µM), 1.07; in test [3] (first compound 0.253 µM) it was 0.956. For the same cell line, the relative viability came out at 0.878 in test [3] (first compound 0.8 µM); 0.87 in test [3] (first compound 2.53 µM); 1.04 in test [3] (first compound 8 µM); 0.612 with Shikonin + OSI-027 (first compound 0.01 µM); 0.555 in the test with Shikonin + OSI-027 (first compound 0.1 µM); 0.592 in the test with Shikonin + OSI-027 (first compound 0.3162 µM). Besides, the relative viability with Shikonin + OSI-027 (first compound 1 µM) amounted to 0.568.
